Literature values as cited in US8415326B2, “Pharmaceutical composition comprising chito-oligomers” (Genis Ehf., priority 2001, dated 2013).

Columns and labels:
activated macrophages = settings: reference [23]
[1] = test system: normal human articular chondrocytes; settings: reference [24]
[2] = test system: mesothelial cells and fibroblasts; settings: reference [11]

SMILES | effect on nitric oxide (NO) production by activated macrophages (activated macrophages) | effect on NO production in normal human articular chondrocytes [1] | synthesis of hyaluronan [2]
CC(=O)N[C@H]1[C@H](O[C@H]2[C@H](O)[C@@H](NC(C)=O)[C@H](O[C@H]3[C@H](O)[C@@H](NC(C)=O)C(O)O[C@@H]3CO)O[C@@H]2CO)O[C@H](CO)[C@@H](O[C@@H]2O[C@H](CO)[C@@H](O[C@@H]3O[C@H](CO)[C@@H](O[C@@H]4O[C@H](CO)[C@@H](O)[C@H](O)[C@H]4NC(C)=O)[C@H](O)[C@H]3NC(C)=O)[C@H](O)[C@H]2NC(C)=O)[C@@H]1O (some centres unmarked) [Hexa-N-acetylchitohexaose] | inhibited NO production but with less potency | – | –
CC(=O)N[C@H]1C(O)O[C@H](CO)[C@@H](O)[C@@H]1O (some centres unmarked) [N-acetylglucosamine] | – | inhibit NO production | increases the synthesis of hyaluronan
N[C@H]1C(O)O[C@H](CO)[C@@H](O)[C@@H]1O (some centres unmarked) [glucosamine] | – | inhibit NO production | –
CC(=O)N[C@H]1[C@H](O[C@H]2[C@H](O)[C@@H](NC(C)=O)[C@H](O[C@H]3[C@H](O)[C@@H](NC(C)=O)C(O)O[C@@H]3CO)O[C@@H]2CO)O[C@H](CO)[C@@H](O[C@@H]2O[C@H](CO)[C@@H](O[C@@H]3O[C@H](CO)[C@@H](O)[C@H](O)[C@H]3NC(C)=O)[C@H](O)[C@H]2NC(C)=O)[C@@H]1O (some centres unmarked) [penta-N-acetylchitopentaose] | inhibited NO production but with less potency | – | –
